Values quoted from earlier work in patent publication US20220098283A1, “ACE2- and TMPRSS2-Targeted Compositions and Methods for Treating COVID-19” (priority 2020, published 2022).
Like-named read-outs stand apart in the source and are kept apart here.

Target: hACE2 (Homo sapiens, UniProt Q9BYF1)
Details: 100 μM angiotensin II, 37° C., 2 hours

Sequence of hACE2 (Q9BYF1 18-805): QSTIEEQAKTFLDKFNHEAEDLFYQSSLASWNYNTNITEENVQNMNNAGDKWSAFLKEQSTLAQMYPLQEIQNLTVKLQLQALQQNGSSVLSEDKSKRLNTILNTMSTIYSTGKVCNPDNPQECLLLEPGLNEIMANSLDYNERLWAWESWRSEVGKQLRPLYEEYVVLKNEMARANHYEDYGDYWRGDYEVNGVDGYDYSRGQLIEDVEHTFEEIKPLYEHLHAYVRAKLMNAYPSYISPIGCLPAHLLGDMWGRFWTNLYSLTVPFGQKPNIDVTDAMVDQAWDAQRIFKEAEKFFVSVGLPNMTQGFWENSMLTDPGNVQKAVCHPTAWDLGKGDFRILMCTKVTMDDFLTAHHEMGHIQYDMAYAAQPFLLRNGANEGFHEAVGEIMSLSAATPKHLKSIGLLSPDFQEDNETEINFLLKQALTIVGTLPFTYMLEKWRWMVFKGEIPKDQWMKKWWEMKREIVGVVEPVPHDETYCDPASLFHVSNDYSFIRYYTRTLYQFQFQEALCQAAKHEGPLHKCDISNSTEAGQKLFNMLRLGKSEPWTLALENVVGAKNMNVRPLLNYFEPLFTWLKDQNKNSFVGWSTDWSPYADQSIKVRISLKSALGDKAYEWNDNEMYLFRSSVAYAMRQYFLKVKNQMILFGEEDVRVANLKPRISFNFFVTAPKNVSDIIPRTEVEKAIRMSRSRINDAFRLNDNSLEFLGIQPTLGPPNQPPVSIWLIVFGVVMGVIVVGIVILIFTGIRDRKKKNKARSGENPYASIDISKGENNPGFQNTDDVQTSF

Row | Compound | inhibition of hACE2 activity (angiotensin II cleavage) (inhibitor 10 mM) | inhibition of hACE2 activity (angiotensin II cleavage) (inhibitor 100 μM)
1 | O=C(O)CN(CCN(CC(=O)O)CC(=O)O)CC(=O)O [EDTA] | inhibits hACE2 activity | –
2 | O=C(O)CC(Cc1ccccc1)C(=O)O (centres unmarked) [benzyl succinate] | – | none of lisinopril, captopril, enalaprilat, and benzyl succinate (a carboxypeptidase A inhibitor) inhibits hACE2 activity
